From US20230226133A1, “METHOD FOR EXTRACTING CERAMIDE-CONTAINING MATERIAL OR CERAMIDE FROM WHOLE APPLES AND/OR APPLE JUICE EXTRACTION RESIDUE, AND COMPOSITION INCLUDING SAID CERAMIDE” (priority 2020, published 2023)

What was measured:
[1] = test system: memory impairment caused by NMDA receptor blocker MK-801; experiment: Passive avoidance test in MK-801 dementia model mice; format: in vivo; conditions: MK-801 alone, 0.2 mg/kg body weight subcutaneous, DDY mice
Experimental: In this example, passive avoidance tests using dementia model mice having MK-801 administered thereto were carried out for estimation of effects of the ceramide-containing matter on memory impairments.
More specifically, 7 week old male DDY mice (available from Japan SLC, Inc.) were pre-fed for experimentation. The ceramide-containing matter suspended in an aqueous solution of 0.5% carboxymethyl cellulose sodium (CMC) was orally administrated to the mice once per day in a dose of 100 mg/kg body weight or 500 mg/kg body weight for six days. At the 7th and 8th days from the onset of administration, training and retention trials of passive avoidance testing were carried out. Ninety (90) minutes before the training trial of passive avoidance testing, 100 mg/kg body weight or 500 mg/kg body weight of the ceramide-containing matter or an aqueous solution of solvent 0.5% CMC were orally administrated to the mice, followed by subcutaneous administration of non-competitive NMDA receptor blocker MK-801 (0.2 mg/kg body weight) or a physiological saline solution 60-minute later. Thirty (30) minutes after that, training trial of passive avoidance testing was carried out, and after the elapse of 24 hours, retention testing was carried out. […]

[2] = test system: MEK/ERK signaling system in PC-12 cells; experiment: MEK-ERK signaling system in neural model cells with MEK inhibitor (western blot); format: cell-based, rat; conditions: UO126 10 μM added 30 minutes before 30 μg/mL ceramide-containing matter
Experimental: An inhibitor of MEK that was the upstream kinase of extracellular signal-regulated kinase (ERK1/2) was used to make an estimation of the effect of the ceramide-containing matter on the MEK/ERK signaling system in PC-12 cells. The PC-12 cells were cultured in a D-MEM culture medium containing 5% bovine serum and 5% horse serum. The MEK inhibitor UO126 was dissolved in dimethyl-sulfoxide (DMSO), and the resulting solution was added to the cells in such an amount as to give 10 μM, and 30 minutes after that, the ceramide-containing matter dissolved in DMSO was added to the cells in such an amount as to give 30 μg/mL for 10-minute culture. After culture, the cells were collected for estimation of the phosphorylation ERK1/2 (phospho ERK1/2) level important for memory formation by means of the western blot method using anti-phospho ERK1/2 antibody and/or anti-total ERK1/2 antibody. Note here that a sample treated with nobiletin (30 μM) was used as a positive control.

SMILES	reaction latency in retention trial versus solvent control group [1]	rise of ERK1/2 phosphorylation level caused by the ceramide-containing matter, after MEK inhibitor pretreatment [2]
C[C@]12N[C@H](Cc3ccccc31)c1ccccc12 [MK-801]	significantly lower in the reaction latency	–
N#CC(=C(/N)Sc1ccccc1N)/C(C#N)=C(/N)Sc1ccccc1N [UO126]	–	kept low
